Data from patent US9121040B2, “Process for rapid anaerobic digestion of biomass using microbes and the production of biofuels therefrom” (priority 2006, dated 2015).
Where two headings read alike, the source gives them in different places. Marks after values point to notes of the source that are not given here.

System: ruminal microorganisms
Test: Effect of sulfur reducing agents on gas, volatile fatty acid and alcohol production, timothy hay with ruminal microorganisms (Example 7)
Assay type: cell-based, mixed rumen microorganisms from cows
Conditions: for H2 (% of all gases): 0.32 mmol/flask agent, timothy hay, mean of initial gas CO2 or N2 without added H2; for H2 (% of fermentation gas): molar percentage among gases excluding N2; for NDF remaining (% of DM): neutral detergent fiber after 24 h
Method: Initial in vitro experiments used timothy grass hay as substrate. For each digestion experiment, we obtained one-half liter of rumen contents from each of two ruminally-cannulated cows two to four hours after morning feeding. The digesta were mixed and ground in a Waring blender for 1 minute while being maintained under CO2 gas. Fluid was strained through four layers of cheese cloth followed by glass wool to remove large particles. Rumen fluid was added to a bicarbonate or 0.1 M sodium phosphate buffer with mineral salts.
Gas samples were collected continuously in mylar balloons, and gas volumes recorded at various time points. Glass tubing coated with epoxy was pushed into the opening on the mylar balloons. The tubing was connected to luer-lock connectors via nylon tubing. Samples were taken using glass syringes attached to the luer-lock connectors. Samples were stored in gas-tight vials for analysis of composition by GC with thermal conductivity detector. Rates of gas production were determined by fitting an inverted exponential equation.
The pH and reducing potential were determined using standard glass or platinum electrodes respectively, while maintaining the gas composition by keeping the flasks closed to the atmosphere with putty fitted around the electrodes. Liquid samples were collected at designated time points and analyzed by gas chromatography (GC) for alcohols (methanol, ethanol, propanol, butanol) volatile fatty acids (acetate, propionate, butyrate, etc). Rates of alcohol or VFA production were determined by fitting an inverted exponential equation.
True fiber digestibility was determined directly on the residue of digestion by refluxing in pH-neutral detergent solution for one hour, drying at 100° C. overnight and weighing.
An experiment was conducted to determine the effect of adding sulfur reducing agents on production of gases, volatile fatty acids, and alcohols. Twenty treatments were arranged in a 2×2×5 factorial design with factors of initial headspace gas (CO2 or N2), addition of 25 ml H2 gas to the initial headspace (+H2, —H2), or one of five sources of sulfur redox agents (0.32 mmol/flask): Na2SO4, Na2SO3, S^0, Na2S, or none. Samples (0.5 g timothy hay) were incubated for 24 hours and products measured as previously. At the start of the incubation, each 125-ml flask was perfused with respective gas. For treatments receiving added H2, 25 ml of perfused gas (at 1 atm pressure) was removed from the flask headspace and forced into the collection balloon. This removed gas was replaced with H2.

[1] = 24 h, mean of CO2 or N2 without added H2
[2] = mean of CO2 or N2 without added H2

Row | SMILES | H2 (% of all gases) (24 h) | 1-propanol [1] | 2Acet + 2Butyr − Propionate (estimated production of H2 equivalent from fermentation of sugar to VFA) [1] | Acetate [1] | Acetate:Butyrate, mole ratio [1] | Acetate:Propion, mole ratio [1] | Butyrate [1] | CH4 (% of all gases) [1] | CH4 (% of fermentation gas) [1] | CH4:CO2 (molar ratio) [1] | CH4:H2 (molar conc. ratio) [1] | CH4 production [1] | CO2 (% of all gases) [1] | CO2 (% of fermentation gas) [1] | CO2 production [1] | Ethanol [1] | H2 equivalent (H2 + 4 CH4) [1] | H2 production [1] | Isobutyrate [1] | Isovalerate [1] | also measured
1 | [Na+].[Na+].[S-2] [Na2S] | 0.078^b % | 0 µmol | 2660^a μmol | 541^a μmol | 6.91^a | 2.59 | 202^a μmol | 5.04^a % | 14.3^a % | 0.183^a | 69^a | 335^a μmol | 42.9^b % | 85.5^b % | 1773^ab μmol | 0 µmol | 1344^a | 5.2^b μmol | 13.5^a μmol | 14.7^a μmol | Eh [1]: −269^c; Propionate [1]: 541^a μmol; Total VFA [1]: 2190^a μmol; VFA-C [1]: 5455^a μmol; pH [1]: 6.47^b; valerate [1]: 19.5^a μmol; H2 (% of fermentation gas) [1]: 0.24^b %; NDF remaining (% of DM) [2]: 35.7^b % of DM
2 | O=S([O-])[O-].[Na+].[Na+] [SO3, Na2SO3] | 1.39^a % | 5.4^6 μmol | 1483^b μmol | 293^b μmol | 4.89^b | 2.52 | 152^b μmol | 0.12^b % | 0.82^b % | 0.010^b | 0.1^b | 6.6^b μmol | 47.9^ab % | 92.0^a % | 1002^b μmol | 25.8^5 μmol | 103^b | 76.6^a μmol | 9.8^b μmol | 12.3^b μmol | Eh: −264^bc; Propionate [1]: 293^b μmol; Total VFA [1]: 1206^b μmol; VFA-C [1]: 3071^b μmol; pH [1]: 6.72^a; valerate [1]: 2.33^c μmol; Methane production (H2 added at the beginning): ≤ 5 µmol; effect on methane production (each gas composition): strongly inhibited; H2 (% of fermentation gas) [1]: 8.18^a %; NDF remaining (% of DM) [2]: 57.2^a % of DM; valerate (starting with CO2, H2 added): 2.3 µmol; valerate (starting with CO2, H2 not added): 3.0 µmol; valerate (starting with N2, H2 added): 8.3 µmol; valerate (starting with N2, H2 not added): 1.7 µmol; hydrogen production (when H2 was added to initial headspace): -179 µmol
3 | O=S(=O)([O-])[O-].[Na+].[Na+] [SO4, Na2SO4] | 0.073^b % | 0 µmol | 2628^a μmol | 538^a μmol | 7.00^a | 2.57 | 198^a μmol | 5.02^a % | 14.4^a % | 0.182^a | 85^a | 363^a μmol | 52.1^a % | 85.4^b % | 2298^ab μmol | 0 µmol | 1459^a | 5.0^b μmol | 12.0^a μmol | 13.0^ab μmol | Eh: −247^ab; Propionate [1]: 538^a μmol; Total VFA [1]: 2162^a μmol; VFA-C [1]: 5370^a μmol; pH [1]: 6.45^b; valerate [1]: 16.7^b μmol; H2 (% of fermentation gas) [1]: 0.24^b %; NDF remaining (% of DM) [2]: 36.0^b % of DM
4 | [S] [S^0] | 0.080^b % | 0 µmol | 2840^a μmol | 550^a μmol | 7.57^a | 2.72 | 198^a μmol | 4.61^a % | 13.8^a % | 0.171^a | 79^a | 334^a μmol | 50.5^a % | 86.0^b % | 1795^ab μmol | 0 µmol | 1340^a | 5.9^b μmol | 12.2^a μmol | 13.3^ab μmol | Eh: −249^abc; Propionate [1]: 550^a μmol; Total VFA [1]: 2287^a μmol; VFA-C [1]: 5634^a μmol; pH [1]: 6.43^b; valerate [1]: 17.1^b μmol; H2 (% of fermentation gas) [1]: 0.22^b %; NDF remaining (% of DM) [2]: 36.5^b % of DM
